What is called IC50 is the point on the concentration scale where inhibition reaches its midpoint. A higher IC50 goes with weaker potency in that assay. A word on the GI50: it is the concentration that inhibits growth by half.

Where a name gives a salt, the structure may show the parent alone.

Assay [1] has as its target T1, monoamine oxidase A (MAO-A) (Homo sapiens, UniProt P21397).
T1 construct: purchased Sigma-Aldrich
T1 sequence (P21397 1-527): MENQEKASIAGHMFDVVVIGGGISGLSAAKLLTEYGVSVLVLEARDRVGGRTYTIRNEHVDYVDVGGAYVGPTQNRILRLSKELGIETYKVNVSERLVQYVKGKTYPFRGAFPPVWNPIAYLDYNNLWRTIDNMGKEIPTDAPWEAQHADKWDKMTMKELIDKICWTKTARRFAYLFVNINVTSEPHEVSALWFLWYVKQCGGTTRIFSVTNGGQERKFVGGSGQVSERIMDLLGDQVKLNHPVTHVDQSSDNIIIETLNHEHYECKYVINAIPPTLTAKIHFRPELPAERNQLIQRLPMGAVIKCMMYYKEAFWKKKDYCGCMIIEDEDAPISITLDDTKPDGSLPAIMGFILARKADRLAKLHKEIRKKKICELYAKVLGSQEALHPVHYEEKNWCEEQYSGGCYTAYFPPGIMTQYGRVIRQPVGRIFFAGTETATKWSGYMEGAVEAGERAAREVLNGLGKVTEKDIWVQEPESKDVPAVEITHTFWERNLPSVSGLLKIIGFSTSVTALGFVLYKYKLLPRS
Briefly: Monoamine oxidase inhibition test (MAO-Glo assay kit). The class given is biochemical. To be noted: room temperature, 1 hour.
Description: To the reaction liquid was added 50 μL of a luciferin detection reagent, and the mixture was subjected to a reaction at room temperature for 20 minutes.

In the next assay the test system is HeLa cells. Briefly: Cancer cell growth inhibition evaluation (MTT assay). The class given is cell-based. To be noted: Homo sapiens, 48 h, read-out: GI50 (μM) HeLa. Summed up: (§1)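 HeLa and SH-SY5Y cells exposed to compound for 48 hours, then MTT added for 3 hours. Formazan dissolved in HCl–isopropanol and absorbance read at 560 nm to determine viable cells.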
For orientation: Tetrazolium assays rely on reduction of a dye to a coloured formazan, in cell work by metabolically active cells.

A further assay has as its system SH-SY5Y cells. Described as above. It is filed as cell-based. To be noted: Homo sapiens, read-out: GI50 (μM) SH-SY5Y. A digest of the protocol: as §1
A further assay relates to K562. Kind of assay: Leukemia cell growth inhibition evaluation (WST-8). The class given is cell-based. The following applies: Homo sapiens, day 3 (72-hour culture), read-out: Human leukemia cell line GI50 (μM) K562. From the text:
(§2) HL60, THP-1, K562, U937, KGla, HEL, and MDS-L were used as human leukemia cells. The cell lines are cell lines established from various subtypes such as acute myeloid leukemia, acute promyelocytic leukemia, acute monocytic leukemia, acute erythroid leukemia, and myelodysplastic syndromes, which progress to leukemia. Cells obtained by introducing leukemia fusion genes MLL/AF9, MLL/SEPT6, and MLL/ENL into the bone marrow of normal mice with a retrovirus so as to develop leukemia were used as murine leukemia cell lines.
(§3) This assay method involves, as a principle thereof, measuring an absorbance (a peak at from 450 nm to 490 nm) at the time of color development through a reaction of NADH, which is contained in the mitochondria of viable cells, and WST-8 to measure the amount of NADH. Specifically, the assay was performed by the following procedure.
(§4) The cells were plated at 50 μl, i.e., 5,000 cells per well in a 96-well microtiter plate. Next, a test compound dissolved in DMSO was mixed at various concentrations into the same medium, and 50 μl of each of the mixtures was added to each well. A medium was prepared so that the final concentration of the test compound was from 0 μM to 50 μM and so that the addition amount of DMSO was the same, and the cells were cultured in a CO2 incubator. On day 0 before the addition and on day 1, day 2, and day 3 after the addition, WST-8 reagent was added at 20 μl per well, and the cells were cultured for 1 hour in a CO2 incubator. After that, measurement was performed with ARVO X3 (manufactured by PerkinElmer).
(§5) Specifically, an absorbance at 450 nm was measured, an absorbance at 595 nm was measured in the same well, and the absorbance at 595 nm was subtracted from the absorbance at 450 nm to perform background correction for the well itself. Further, a well containing only a medium free of cells was subjected to the same measurement. A value in this case was also subtracted. Thus, the amount of viable cells was represented as a numerical value with correction of the influence of a medicament or a medium as well. Under a condition not containing the test compound (addition of only dimethyl sulfoxide), an exponential increase in number of viable cells on day 1, day 2, and day 3 in the stated order was confirmed.

The test system of a further assay is M7. Kind of assay: Leukemia cell growth inhibition evaluation (WST-8). The class given is cell-based. The following applies: Homo sapiens; day 3 (72-hour culture); read-out: Human leukemia cell line GI50 (μM) M7.
From the text: as §2, §3, §4, §5

The test system of assay [2] is human leukemia cell lines. Kind of assay: Leukemia cell growth inhibition evaluation, summary in words. It is filed as cell-based. The following applies: Table 5.
From the text: as §2, §3, §4, §5

Assay [3] concerns murine leukemia cell lines. The description is as above. The class given is cell-based. The following applies: Table 6.
From the text: as §2, §3, §4, §5

Molecule `O=C(N[C@@H](CCCCNC1CC1c1ccccc1)C(=O)NCc1ccccc1)c1ccc(-c2ccccc2)cc1` (stereo partly drawn) [Example 8, 2-[N-(4-Phenylbenzenecarbonyl)]amino-6-(trans-2-phenylcyclopropan-1-amino)-N-benzylhexanamide Hydrochloride] came in with a concentration for half-maximal inhibition (IC50) in assay [1] of 86 µM. For the same molecule, the GI50 with HeLa cells was 11 µM; in the assay with SH-SY5Y cells, 4 µM; in the assay on K562 it was 3.2 µM; in the assay on M7 it was around 6 µM. Moreover, in assay [2], the “growth inhibitory / suppressing effect on the human leukemia cell lines (in words)” value is listed as “higher growth suppressing effects on the human leukemia cell lines than Comparative Example 2”. In addition, the “growth inhibitory / suppressing effect on the murine leukemia cell lines (in words)” value in assay [3] was “very high growth suppressing effects”.

In turn, `O=C(N[C@@H](CCCCNC1CC1c1ccccc1)C(=O)NCc1cccc(C(F)(F)F)c1)c1ccc(-c2ccccc2)cc1` (stereo partly drawn) [Example 19, 2-[N-(4-Phenylbenzenecarbonyl)]amino-6-(trans-2-phenylcyclopropan-1-amino)-N-(3-trifluoromethylbenzyl)hexanamide Hydrochloride] showed an IC50 in assay [1] above 100 µM. Moreover, the GI50 worked out at 4.3 µM in the assay with HeLa cells and 2.9 µM in the assay with SH-SY5Y cells. The “growth inhibitory / suppressing effect on the human leukemia cell lines (in words)” value in assay [2] is listed as “higher growth suppressing effects on the human leukemia cell lines than Comparative Example 2”. The “growth inhibitory / suppressing effect on the murine leukemia cell lines (in words)” value in assay [3] is on record as “very high growth suppressing effects”.

These data come from patent US9388123B2, “LSD1-selective inhibitor having lysine structure” (KYOTO UNIVERSITY, priority 2012, dated 2016).
